What all share (test): relative viability (nuclei count vs DMSO), 5 days (fraction); higher = more cells survive
Compound in the test “Motesanib + Tozasertib”: CC1(C)CNc2cc(NC(=O)c3cccnc3NCc3ccncc3)ccc21 [Motesanib] + Cc1cc(Nc2cc(N3CCN(C)CC3)nc(Sc3ccc(NC(=O)C4CC4)cc3)n2)n[nH]1 [Tozasertib] (partner 0.1 µM)
Put shortly:
(§1)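 Lung cancer cell lines were seeded in 1536-well plates and dosed by pin tool the next day, with either a single drug or a fixed anchor-drug dose combined with five library-drug doses (not always all listed) spaced in √10 steps. Five days later, one step fixed the cells and stained their nuclei (final 0.05% Triton X-100, 1% formaldehyde, 1 ug/ml Hoechst), and nuclei were counted on 4× images. Relative viability is the nuclei count in treated wells divided by the count in vehicle wells, and each value is the median of duplicate plates.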

Compound in test [1]: C[C@@]1(C(=O)Nc2ccc(F)nc2)CCCN1c1nc(Nc2cc(C3CC3)n[nH]2)c2cccn2n1 + CC(C)C[C@H](NC(=O)[C@H](Cc1ccccc1)NC(=O)c1cnccn1)B(O)O [Bortezomib] (partner 0.002 µM)
Put shortly:
as §1

Compound in test [2]: C[C@@]1(C(=O)Nc2ccc(F)nc2)CCCN1c1nc(Nc2cc(C3CC3)n[nH]2)c2cccn2n1 + COc1cc2c(Oc3ccc(NC(=O)C4(C(=O)Nc5ccc(F)cc5)CC4)cc3F)ccnc2cc1OCCCN1CCOCC1 [Foretinib] (partner 0.25 µM)
Put shortly:
as §1

Compound in test [3]: C[C@@]1(C(=O)Nc2ccc(F)nc2)CCCN1c1nc(Nc2cc(C3CC3)n[nH]2)c2cccn2n1 + C[C@]1(O)C[C@@H](c2nc(-c3ccc4ccc(-c5ccccc5)nc4c3)c3c(N)nccn32)C1 [Linsitinib] (partner 1 µM)
Put shortly:
as §1

Take RERF-LC-KJ: the relative viability amounted to 0.536 with Motesanib + Tozasertib (first compound 0.01 µM); 0.478 in the test with Motesanib + Tozasertib (first compound 0.03162 µM); 0.527 with Motesanib + Tozasertib (first compound 0.1 µM); 0.501 with Motesanib + Tozasertib (first compound 0.3162 µM); 0.505 with Motesanib + Tozasertib (first compound 1 µM); 0.919 in test [1] (first compound 0.04 µM). Besides, the relative viability worked out at 0.872 in test [1] (first compound 0.1265 µM); 0.907 in test [1] (first compound 0.4 µM); 0.878 in test [1] (first compound 1.265 µM); 0.815 in test [2] (first compound 0.04 µM); 0.777 in test [2] (first compound 0.1265 µM); 0.659 in test [2] (first compound 0.4 µM). Moreover, the relative viability in test [2] (first compound 1.265 µM) came out at 0.714; in test [3] (first compound 0.04 µM), 0.868; in test [3] (first compound 0.1265 µM), 0.818; in test [3] (first compound 0.4 µM), 0.838; in test [3] (first compound 1.265 µM) it was 0.857.

Turning to SK-LU-1, the relative viability worked out at 0.325 with Motesanib + Tozasertib (first compound 0.01 µM); 0.298 with Motesanib + Tozasertib (first compound 0.03162 µM); 0.352 with Motesanib + Tozasertib (first compound 0.1 µM); 0.327 in the test with Motesanib + Tozasertib (first compound 0.3162 µM); 0.263 with Motesanib + Tozasertib (first compound 1 µM); 1.06 in test [1] (first compound 0.04 µM). Besides, the relative viability amounted to 1.03 in test [1] (first compound 0.1265 µM); 0.93 in test [1] (first compound 0.4 µM); 0.884 in test [1] (first compound 1.265 µM); 0.782 in test [2] (first compound 0.04 µM); 0.546 in test [2] (first compound 0.1265 µM); 0.602 in test [2] (first compound 0.4 µM). The relative viability in test [2] (first compound 1.265 µM) was 0.575; in test [3] (first compound 0.04 µM) it was 1.15; in test [3] (first compound 0.1265 µM), 1.13; in test [3] (first compound 0.4 µM) it was 0.74; in test [3] (first compound 1.265 µM), 0.913.

For the cell line SW 1573, the relative viability with Motesanib + Tozasertib (first compound 0.01 µM) came out at 0.144; with Motesanib + Tozasertib (first compound 0.03162 µM), 0.145; in the test with Motesanib + Tozasertib (first compound 0.1 µM), 0.187; with Motesanib + Tozasertib (first compound 0.3162 µM) it was 0.222; with Motesanib + Tozasertib (first compound 1 µM), 0.177; in test [1] (first compound 0.04 µM), 0.894. In addition, the relative viability was determined as 0.611 in test [1] (first compound 0.1265 µM); 0.7 in test [1] (first compound 0.4 µM); 0.716 in test [1] (first compound 1.265 µM); 0.744 in test [2] (first compound 0.04 µM); 0.826 in test [2] (first compound 0.1265 µM); 0.494 in test [2] (first compound 0.4 µM). For the same cell line, the relative viability amounted to 0.659 in test [2] (first compound 1.265 µM); 0.914 in test [3] (first compound 0.04 µM); 0.665 in test [3] (first compound 0.1265 µM); 0.656 in test [3] (first compound 0.4 µM); 0.806 in test [3] (first compound 1.265 µM).

On to UMC-11, for which the relative viability is 0.205 with Motesanib + Tozasertib (first compound 0.01 µM); 0.213 with Motesanib + Tozasertib (first compound 0.03162 µM); 0.216 in the test with Motesanib + Tozasertib (first compound 0.1 µM); 0.207 with Motesanib + Tozasertib (first compound 0.3162 µM); 0.228 with Motesanib + Tozasertib (first compound 1 µM); 0.79 in test [1] (first compound 0.04 µM). The relative viability in test [1] (first compound 0.1265 µM) came out at 0.829; in test [1] (first compound 0.4 µM) it was 0.598; in test [1] (first compound 1.265 µM), 0.733; in test [2] (first compound 0.04 µM), 1.09; in test [2] (first compound 0.1265 µM) it was 1.12; in test [2] (first compound 0.4 µM) it was 0.901. Further, the relative viability is 0.299 in test [2] (first compound 1.265 µM); 1.08 in test [3] (first compound 0.04 µM); 0.985 in test [3] (first compound 0.1265 µM); 0.957 in test [3] (first compound 0.4 µM); 1.05 in test [3] (first compound 1.265 µM).

Values taken from the supplement of paper PMC10307832.
